Results from patent US20230212549A1, “COMPOUNDS COMPRISING A […] LIGAND AND USE THEREOF” (priority 2021, published 2023).

Columns and labels:
[1] = target: 5-HT2B (h) (Homo sapiens, UniProt P41595); conditions: read-out: Ki Ref; reference compound (positive control)
[2] = target: T1, FAP-expressing human WI-38 fibroblasts (Homo sapiens, UniProt Q12884); assay: Competitive FACS binding assay
T1 construct: FAP-expressing human WI-38 fibroblasts (ECACC) were cultured in EMEM; host or cells: WI-38 human fibroblasts
T1 sequence (Q12884 whole entry): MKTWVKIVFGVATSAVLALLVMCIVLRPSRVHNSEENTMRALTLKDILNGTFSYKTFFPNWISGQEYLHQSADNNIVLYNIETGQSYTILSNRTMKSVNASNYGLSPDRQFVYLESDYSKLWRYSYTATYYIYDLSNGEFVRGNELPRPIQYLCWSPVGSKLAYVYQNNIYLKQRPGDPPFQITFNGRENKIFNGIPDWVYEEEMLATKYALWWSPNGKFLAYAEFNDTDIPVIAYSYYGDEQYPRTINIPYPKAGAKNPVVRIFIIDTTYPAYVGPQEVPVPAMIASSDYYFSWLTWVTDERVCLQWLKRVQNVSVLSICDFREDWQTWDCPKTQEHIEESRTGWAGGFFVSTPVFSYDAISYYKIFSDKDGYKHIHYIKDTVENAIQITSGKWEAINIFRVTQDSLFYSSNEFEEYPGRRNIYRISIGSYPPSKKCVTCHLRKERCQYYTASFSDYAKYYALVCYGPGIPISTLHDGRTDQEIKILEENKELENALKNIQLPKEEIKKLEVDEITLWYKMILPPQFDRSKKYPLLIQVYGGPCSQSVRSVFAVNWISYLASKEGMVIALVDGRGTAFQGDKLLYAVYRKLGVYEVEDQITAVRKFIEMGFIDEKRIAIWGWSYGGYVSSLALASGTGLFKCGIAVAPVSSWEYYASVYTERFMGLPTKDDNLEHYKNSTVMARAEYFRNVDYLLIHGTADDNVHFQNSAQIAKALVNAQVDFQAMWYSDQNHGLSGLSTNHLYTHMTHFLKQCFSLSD
Procedure: Cells were analyzed in an Attune NxT flow cytometer. […] […].
Cells were analyzed in an Attune NxT flow cytometer. […]

[3] = test system: HEK-FAP tumor; assay: SPECT imaging and biodistribution of ^111In-labelled compounds in mice with HEK-FAP tumors; type: in vivo; conditions: FIG. 21
[4] = target: T2, Human recombinant FAP (Homo sapiens, UniProt Q12884); assay: FRET-based FAP protease activity assay; type: biochemical; parameters: purchased R&D systems 3715-SE; conditions: pIC50 Category (Activity), FRET-peptide substrate, 37° C.
T2 sequence (Q12884 whole entry): as above

[5] = target: T2, Human recombinant FAP; assay: Surface plasmon resonance (Biacore) assay; type: binding
[6] = In vivo SPECT/CT imaging of ^111In-3BP-4560 in mice; conditions: ^111In-labelled, FIG. 28
[7] = target: NMDA; conditions: read-out: Ki Ref; reference compound (positive control)
[8] = target: T3, proteases (Homo sapiens, UniProt P42574); type: biochemical; conditions: Caspase-3; Reference at 100 nM
T3 construct: BPS Biosciences (ran the screen)
T3 sequence (P42574 29-277): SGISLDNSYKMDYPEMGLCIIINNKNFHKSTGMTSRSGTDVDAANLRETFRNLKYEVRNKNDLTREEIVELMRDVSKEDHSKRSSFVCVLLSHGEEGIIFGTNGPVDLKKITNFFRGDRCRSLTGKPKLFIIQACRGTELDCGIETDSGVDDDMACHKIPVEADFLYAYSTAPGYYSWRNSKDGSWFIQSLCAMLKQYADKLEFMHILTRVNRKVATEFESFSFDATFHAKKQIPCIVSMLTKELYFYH

[9] = target: T4, proteases (Homo sapiens, UniProt P55210); type: biochemical; conditions: Caspase-7; Reference at 1 μM
T4 construct: BPS Biosciences (ran the screen)
T4 sequence (P55210 whole entry): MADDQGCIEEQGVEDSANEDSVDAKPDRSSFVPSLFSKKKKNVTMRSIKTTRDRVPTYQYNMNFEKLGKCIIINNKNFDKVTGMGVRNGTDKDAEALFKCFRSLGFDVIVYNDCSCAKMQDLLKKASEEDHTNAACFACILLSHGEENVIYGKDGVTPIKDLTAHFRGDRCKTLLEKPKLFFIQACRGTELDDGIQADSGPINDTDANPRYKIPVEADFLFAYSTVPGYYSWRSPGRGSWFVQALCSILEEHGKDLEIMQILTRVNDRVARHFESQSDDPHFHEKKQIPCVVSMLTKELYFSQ

[10] = target: T5, proteases (Homo sapiens, UniProt Q6V1X1); type: biochemical; conditions: DPP8; Reference at 200 μM
T5 construct: BPS Biosciences (ran the screen)

[11] = target: proteases (Homo sapiens, UniProt Q9UHL4); type: biochemical; conditions: DPP7; Reference at 200 μM
[12] = target: T6, proteases (Homo sapiens, UniProt P03956); type: biochemical; conditions: Matrix metalloproteasel; Reference at 1 μM
T6 construct: BPS Biosciences (ran the screen)

[13] = target: T7, proteases (Homo sapiens, UniProt P08253); type: biochemical; conditions: Matrix metalloprotease 2; Reference at 100 nM
T7 construct: BPS Biosciences (ran the screen)

[14] = target: T8, proteases (Homo sapiens, UniProt P14780, Q279R); type: biochemical; conditions: 0.1 µM
T8 construct: BPS Biosciences (ran the screen)
T8 sequence (P14780 94-707 Q279R): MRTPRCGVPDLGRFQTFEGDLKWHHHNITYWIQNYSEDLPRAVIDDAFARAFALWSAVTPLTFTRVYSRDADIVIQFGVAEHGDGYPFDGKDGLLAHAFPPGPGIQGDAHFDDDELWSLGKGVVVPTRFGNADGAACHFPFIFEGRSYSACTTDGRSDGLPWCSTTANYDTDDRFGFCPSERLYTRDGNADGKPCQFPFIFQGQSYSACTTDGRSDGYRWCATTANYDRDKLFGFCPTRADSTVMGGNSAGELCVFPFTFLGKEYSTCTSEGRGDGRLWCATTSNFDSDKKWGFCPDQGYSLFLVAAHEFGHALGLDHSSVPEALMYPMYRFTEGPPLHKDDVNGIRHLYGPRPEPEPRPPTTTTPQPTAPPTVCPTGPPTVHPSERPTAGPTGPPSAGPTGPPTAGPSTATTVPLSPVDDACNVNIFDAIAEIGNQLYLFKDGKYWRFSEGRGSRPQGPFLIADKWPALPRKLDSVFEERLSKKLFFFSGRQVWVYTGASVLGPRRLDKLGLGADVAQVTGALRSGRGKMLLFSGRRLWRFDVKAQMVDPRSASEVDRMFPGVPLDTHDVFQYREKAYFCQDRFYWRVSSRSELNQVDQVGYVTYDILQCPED

[15] = target: T9, proteases (Homo sapiens, UniProt Q12884); type: biochemical; conditions: FAP; Reference at 100 nM
T9 construct: BPS Biosciences (ran the screen)

[16] = target: alpha 1A (h) (Homo sapiens, UniProt P35348); conditions: read-out: Ki Ref; reference compound (positive control)
Sequence of alpha 1A (h) (P35348 whole entry): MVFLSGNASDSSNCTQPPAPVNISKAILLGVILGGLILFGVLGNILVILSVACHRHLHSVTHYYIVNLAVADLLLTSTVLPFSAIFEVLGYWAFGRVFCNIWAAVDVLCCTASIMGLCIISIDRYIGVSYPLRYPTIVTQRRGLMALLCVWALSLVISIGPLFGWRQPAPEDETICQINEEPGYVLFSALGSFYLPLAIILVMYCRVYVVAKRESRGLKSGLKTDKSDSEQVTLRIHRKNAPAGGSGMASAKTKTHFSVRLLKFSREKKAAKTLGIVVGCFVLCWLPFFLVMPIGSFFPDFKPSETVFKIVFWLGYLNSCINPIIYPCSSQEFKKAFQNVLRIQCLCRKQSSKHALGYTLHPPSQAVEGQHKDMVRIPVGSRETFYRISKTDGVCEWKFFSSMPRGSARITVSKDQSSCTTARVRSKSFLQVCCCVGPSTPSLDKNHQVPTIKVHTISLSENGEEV

[17] = target: T10, proteases (Homo sapiens, UniProt Q9UBX1); type: biochemical; conditions: Cathepsin F; Reference at 1 μM
T10 construct: BPS Biosciences (ran the screen)

[18] = target: T11, proteases (Hepatitis C virus genotype 1b, UniProt P26663, D1194V); type: biochemical; conditions: serine protease NS3 (a.a. 3-181) from Hepatitis C virus genotype 1b (mutant D168V); Reference at 100 nM
T11 construct: BPS Biosciences (ran the screen)

[19] = target: T12, proteases (Hepatitis C virus genotype 2a, UniProt Q99IB8); type: biochemical; conditions: serine protease NS3 (a.a. 3-181) from Hepatitis C virus genotype 2a; Reference at 100 nM
T12 construct: BPS Biosciences (ran the screen)

[20] = target: T13, proteases (Hepatitis C virus genotype 1b, UniProt P26663, R1181Q); type: biochemical; conditions: serine protease NS3 (a.a. 3-181) from Hepatitis C virus genotype 1b (mutant R155Q); Reference at 1 μM
T13 construct: BPS Biosciences (ran the screen)

[21] = target: T14, proteases (Hepatitis C virus genotype 1a, UniProt P27958, D1194V); type: biochemical; conditions: serine protease NS3 (a.a. 3-181) from Hepatitis C virus genotype 1a (mutant D168V); Reference at 100 nM
T14 construct: BPS Biosciences (ran the screen)

[22] = target: T15, proteases (Hepatitis C virus genotype 1b, UniProt P26663); type: biochemical; conditions: serine protease NS3 (a.a. 3-181) from Hepatitis C virus genotype 1b; Reference at 100 nM
T15 construct: BPS Biosciences (ran the screen)

[23] = test system: metastatic colorectal cancer; conditions: patients with metastatic colorectal cancer, Phase I and II clinical trials; cited from earlier work
[24] = target: T16, proteases (Homo sapiens, UniProt P40818); type: biochemical; conditions: Ubiquitin carboxyl-terminal hydrolase 8; Reference at 1 μM
T16 construct: BPS Biosciences (ran the screen)
T16 sequence (P40818 whole entry): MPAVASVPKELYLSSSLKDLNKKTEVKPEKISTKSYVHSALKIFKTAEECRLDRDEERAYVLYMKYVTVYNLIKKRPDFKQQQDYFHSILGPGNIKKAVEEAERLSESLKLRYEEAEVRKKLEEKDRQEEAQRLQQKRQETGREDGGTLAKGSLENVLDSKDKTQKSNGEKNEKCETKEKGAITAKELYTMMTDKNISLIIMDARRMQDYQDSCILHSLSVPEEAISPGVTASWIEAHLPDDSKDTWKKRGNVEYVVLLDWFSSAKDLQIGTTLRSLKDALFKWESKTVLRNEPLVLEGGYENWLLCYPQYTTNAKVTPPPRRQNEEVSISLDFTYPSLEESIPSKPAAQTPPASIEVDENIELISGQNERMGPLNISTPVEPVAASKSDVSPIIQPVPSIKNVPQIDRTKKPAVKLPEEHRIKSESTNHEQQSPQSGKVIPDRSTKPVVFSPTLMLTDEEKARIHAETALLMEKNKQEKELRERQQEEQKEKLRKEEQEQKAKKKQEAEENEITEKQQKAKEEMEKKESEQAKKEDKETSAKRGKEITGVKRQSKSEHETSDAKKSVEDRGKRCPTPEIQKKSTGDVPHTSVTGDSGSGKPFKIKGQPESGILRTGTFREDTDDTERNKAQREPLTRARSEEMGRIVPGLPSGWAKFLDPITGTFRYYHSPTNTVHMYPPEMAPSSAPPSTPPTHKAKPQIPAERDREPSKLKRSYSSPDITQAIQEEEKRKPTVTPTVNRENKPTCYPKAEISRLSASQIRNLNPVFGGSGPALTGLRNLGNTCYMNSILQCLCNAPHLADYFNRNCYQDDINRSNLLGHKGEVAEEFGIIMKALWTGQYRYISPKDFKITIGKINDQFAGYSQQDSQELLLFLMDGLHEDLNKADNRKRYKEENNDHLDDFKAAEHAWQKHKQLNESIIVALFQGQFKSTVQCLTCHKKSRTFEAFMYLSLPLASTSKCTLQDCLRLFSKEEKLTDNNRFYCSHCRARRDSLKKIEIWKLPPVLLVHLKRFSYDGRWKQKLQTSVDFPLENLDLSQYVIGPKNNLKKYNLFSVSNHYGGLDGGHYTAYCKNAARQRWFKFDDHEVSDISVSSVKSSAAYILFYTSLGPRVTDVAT

[25] = target: T17, proteases (Homo sapiens, UniProt P54252); type: biochemical; conditions: Ataxin3; Reference at 10 μM
T17 construct: BPS Biosciences (ran the screen)

[26] = target: T18, proteases (Homo sapiens, UniProt P09936); type: biochemical; conditions: Ubiquitin carboxy-terminal hydrolase L1; Reference at 100 nM
T18 construct: BPS Biosciences (ran the screen)
T18 sequence (P09936 whole entry): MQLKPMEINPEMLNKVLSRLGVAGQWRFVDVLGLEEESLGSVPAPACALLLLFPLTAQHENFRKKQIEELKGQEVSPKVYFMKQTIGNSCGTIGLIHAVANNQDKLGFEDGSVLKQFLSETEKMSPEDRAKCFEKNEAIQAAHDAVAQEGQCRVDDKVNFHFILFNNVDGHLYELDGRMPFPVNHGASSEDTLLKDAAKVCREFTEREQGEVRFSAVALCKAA

[27] = target: T19, proteases (Homo sapiens, UniProt Q8N6M0); type: biochemical; conditions: Deubiquitinase OTUD6B; Reference at 1 μM
T19 construct: BPS Biosciences (ran the screen)

[28] = target: T20, proteases (Homo sapiens, UniProt P45974); type: biochemical; conditions: Ubiquitin carboxyl-terminal hydrolase 5; Reference at 1 μM
T20 construct: BPS Biosciences (ran the screen)

[29] = target: T21, proteases (Homo sapiens, UniProt Q93009); type: biochemical; conditions: Ubiquitin carboxyl-terminal hydrolase 7; Reference at 1 μM
T21 construct: BPS Biosciences (ran the screen)

[30] = target: T22, proteases (Homo sapiens, UniProt P15374); type: biochemical; conditions: Ubiquitin carboxy-terminal hydrolase L3; Reference at 10 nM
T22 construct: BPS Biosciences (ran the screen)
T22 sequence (P15374 whole entry): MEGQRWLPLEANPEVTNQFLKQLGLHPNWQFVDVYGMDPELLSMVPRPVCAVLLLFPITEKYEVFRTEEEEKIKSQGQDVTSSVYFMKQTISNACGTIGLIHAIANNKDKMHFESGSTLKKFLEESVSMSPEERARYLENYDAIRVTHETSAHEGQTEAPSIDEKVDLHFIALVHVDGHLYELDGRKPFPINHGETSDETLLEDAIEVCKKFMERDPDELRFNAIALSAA

[31] = target: T23, proteases (Homo sapiens, UniProt Q14694); type: biochemical; conditions: Ubiquitin carboxyl-terminal hydrolase 10; Reference at 1 μM
T23 construct: BPS Biosciences (ran the screen)

[32] = target: T24, proteases (Homo sapiens, UniProt P54578); type: biochemical; conditions: Ubiquitin carboxyl-terminal hydrolase 14; Reference at 100 nM
T24 construct: BPS Biosciences (ran the screen)
T24 sequence (P54578 whole entry): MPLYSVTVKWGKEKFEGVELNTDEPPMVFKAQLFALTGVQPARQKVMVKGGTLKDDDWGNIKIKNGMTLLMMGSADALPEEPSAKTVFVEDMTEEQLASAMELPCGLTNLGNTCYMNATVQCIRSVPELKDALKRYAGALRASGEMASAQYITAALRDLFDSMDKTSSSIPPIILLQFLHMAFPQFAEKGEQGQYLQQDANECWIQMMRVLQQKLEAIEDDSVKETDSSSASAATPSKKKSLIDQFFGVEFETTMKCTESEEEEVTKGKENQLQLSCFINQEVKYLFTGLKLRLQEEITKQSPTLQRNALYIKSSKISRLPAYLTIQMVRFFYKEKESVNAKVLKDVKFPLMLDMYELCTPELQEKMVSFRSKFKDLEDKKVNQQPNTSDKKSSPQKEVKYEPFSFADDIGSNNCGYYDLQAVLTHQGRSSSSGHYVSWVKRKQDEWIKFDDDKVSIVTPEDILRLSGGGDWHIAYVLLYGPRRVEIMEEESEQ

[33] = target: T25, proteases (Homo sapiens, UniProt O75604); type: biochemical; conditions: Ubiquitin carboxyl-terminal hydrolase 2; Reference at 1 μM
T25 construct: BPS Biosciences (ran the screen)

[34] = target: T26, proteases (Homo sapiens, UniProt P21580); type: biochemical; conditions: A20; Reference at 1 μM
T26 construct: BPS Biosciences (ran the screen)

[35] = target: KV channel; conditions: read-out: Ki Ref; reference compound (positive control)

Sequence of 5-HT2B (h) (P41595 whole entry): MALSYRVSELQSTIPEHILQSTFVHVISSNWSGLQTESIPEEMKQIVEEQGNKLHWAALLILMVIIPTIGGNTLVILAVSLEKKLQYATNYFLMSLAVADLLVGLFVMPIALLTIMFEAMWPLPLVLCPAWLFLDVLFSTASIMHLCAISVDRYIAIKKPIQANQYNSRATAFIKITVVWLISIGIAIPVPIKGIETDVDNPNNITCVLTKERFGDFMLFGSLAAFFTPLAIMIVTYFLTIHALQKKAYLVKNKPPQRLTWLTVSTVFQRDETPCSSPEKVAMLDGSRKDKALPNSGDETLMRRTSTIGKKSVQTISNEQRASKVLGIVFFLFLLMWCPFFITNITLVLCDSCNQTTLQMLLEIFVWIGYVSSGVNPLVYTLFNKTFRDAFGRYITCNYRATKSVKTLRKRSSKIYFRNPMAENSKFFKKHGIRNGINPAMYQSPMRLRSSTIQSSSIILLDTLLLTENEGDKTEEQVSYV

COc1cc(CC(C)N)c(OC)cc1I (racemic) [(±)DOI]
Ki [1]: 4.2 nM

CCCCNC(=O)N[C@H]1CSCc2cc(CSCCNC(=O)CN3CCN(CC(=O)O)CCN(CC(=O)O)CCN(CC(=O)O)CC3)cc(c2)CSC[C@@H](C(=O)O)NC(=O)[C@H](Cc2ccccc2)NC(=O)[C@H](CCC(N)=O)NC(=O)[C@H]([C@@H](C)O)NC(=O)[C@@H]2CCCN2C(=O)[C@@H]2CCCN2C1=O [3BP-3940, nBu-CAyl-[Cys(tMeBn(DOTA-AET))-Pro-Pro-Thr-Gln-Phe-Cys]-OH]
IC50 [2]: < 10 nM
uptake in healthy tissues (biodistribution) [3]: very low uptake in healthy tissues
IC50 [4]: < 10 nM
Kd [5]: < 10 nM
pKD Category ([5]; Biacore assay): A (Category A stands for pKD values >8.0)

CCCCNC(=O)N[C@H]1CSCc2cc(CSCCNC(=O)CN3CCN(CC(=O)O)CCN(CC(=O)O)CCN(CC(=O)O)CC3)cc(c2)CSC[C@@H](C(N)=O)NC(=O)[C@H](Cc2ccccc2)NC(=O)[C@H](CCC(N)=O)NC(=O)[C@H]([C@@H](C)O)NC(=O)[C@@H]2CCCN2C(=O)[C@@H]2CCCN2C1=O [3BP-4560, nBu-CAyl-[Cys(tMeBn(DOTA-AET))-Pro-Pro-Thr-Gln-Phe-Cys]-NH2]
IC50 [2]: < 10 nM
uptake in healthy tissues (biodistribution) [6]: very low uptake in healthy tissues
IC50 [4]: < 10 nM
Kd [5]: < 10 nM

O=C(O)[C@@H]1C[C@H](CP(=O)(O)O)CCN1 [CGS 19755]
Ki [7]: 140 nM

COC[C@@H]1CCCN1S(=O)(=O)c1ccc2c(c1)C(=O)C(=O)N2 [Caspase 3/7 Inhibitor I]
Percentage inhibition (%) [8]: 89%
Percentage inhibition (%) [9]: 92%

N#Cc1ccc(NCCNCC(=O)N2N=CCC2C#N)nc1 (stereo not drawn) [KR62436]
Percentage inhibition (%) [10]: 96%
Percentage inhibition (%) [11]: 83%

COc1ccc(S(=O)(=O)N(CC(=O)NO)CC(C)C)cc1 [NNGH]
Percentage inhibition (%) [12]: 87%
Percentage inhibition (%) [13]: 95%
Percentage inhibition (%) [14]: 92%

N#C[C@@H]1CC(F)(F)CN1C(=O)CNC(=O)c1ccnc2ccccc12 [SP-13786]
Percentage inhibition (%) [15]: 100%

COc1cccc(OC)c1OCCNCC1COc2ccccc2O1 (stereo not drawn) [WB 4101]
Ki [16]: 0.24 nM

Cystatin C
Percentage inhibition (%) [17]: 74%

Denoprevir
Percentage inhibition (%) [18]: 99%
Percentage inhibition (%) [19]: 98%
Percentage inhibition (%) [20]: 99%
Percentage inhibition (%) [21]: 94%
Percentage inhibition (%) [22]: 100%

Sibrotuzumab
patients having stable disease [23]: 2 out of 17

Ub-Aldehyde
Percentage inhibition (%) [24]: 73%
Percentage inhibition (%) [25]: 77%
Percentage inhibition (%) [26]: 92%
Percentage inhibition (%) [27]: 97%
Percentage inhibition (%) [28]: 84%
Percentage inhibition (%) [29]: 95%
Percentage inhibition (%) [30]: 95%
Percentage inhibition (%) [31]: 82%
Percentage inhibition (%) [32]: 96%
Percentage inhibition (%) [33]: 91%
Percentage inhibition (%) [34]: 99%

alpha-dendrotoxin
Ki [35]: 0.097 nM
